Assay [1] deals with T1, σ1 receptor (Cavia porcellus, UniProt Q60492).
T1 construct: using guinea pig brain membrane homogenates; from tissue; host or cells: guinea pig brain membrane homogenates
The assay is described as follows: σ1 receptor binding assay, (+)-[3H]pentazocine, guinea pig brain membranes.
Experimental: (§1) The compounds were dissolved in DMF, DMSO, or ethanol, and then diluted in 50 mM Tris-HCl buffer containing 150 mM NaCl and 100 mM EDTA at pH 7.4, prior to performing the σ1 and σ2 receptor binding assays.
The total incubation time was 90 min at room temperature. Nonspecific binding was determined from samples that contained 10 μM of cold haloperidol. After 90 min, the reaction was quenched by adding 150 μL of ice-cold wash buffer (10 mM Tris-HCl, 150 mM NaCl, pH 7.4) using a 96 channel transfer pipet (Fisher Scientific, Pittsburgh, Pa.). The samples were harvested and filtered rapidly through a 96-well fiberglass filter plate (Millipore, Billerica, Mass.) that had been presoaked with 100 μL of 50 mM Tris-HCl buffer at pH 8.0 for 1 h.
(§2) Ki values were calculated using the method of Cheng and Prusoff and are presented as the mean (±1 SEM).

Assay [2] has as its target T2, σ2 receptor (Rattus norvegicus, UniProt Q5U3Y7).
T2 sequence (Q5U3Y7 1-176): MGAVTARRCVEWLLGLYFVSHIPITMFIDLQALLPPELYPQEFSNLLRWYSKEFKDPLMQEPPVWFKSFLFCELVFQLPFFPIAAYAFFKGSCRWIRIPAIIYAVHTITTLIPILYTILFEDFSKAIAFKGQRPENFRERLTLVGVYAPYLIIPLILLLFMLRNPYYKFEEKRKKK
The assay is described as follows: σ2 receptor binding assay, [3H]DTG, rat liver membrane homogenates. Further details: conducted using rat liver membrane homogenates; from tissue; host or cells: rat liver membrane homogenates.
Experimental: as §1
The incubation time was 2 h at room temperature. Nonspecific binding was determined from samples that contained 10 μM of cold haloperidol. All other procedures were identical to those described for the σ1 receptor binding assay above.
as §2

For assay [3], the target named is T3, human vesicular acetylcholine transporter (VAChT) (Homo sapiens, UniProt Q16572).
T3 construct: expressed in transfected cells; host or cells: PC12 A123.7 cells (crude extract / homogenized, partially clarified cells)
T3 sequence (Q16572 1-532): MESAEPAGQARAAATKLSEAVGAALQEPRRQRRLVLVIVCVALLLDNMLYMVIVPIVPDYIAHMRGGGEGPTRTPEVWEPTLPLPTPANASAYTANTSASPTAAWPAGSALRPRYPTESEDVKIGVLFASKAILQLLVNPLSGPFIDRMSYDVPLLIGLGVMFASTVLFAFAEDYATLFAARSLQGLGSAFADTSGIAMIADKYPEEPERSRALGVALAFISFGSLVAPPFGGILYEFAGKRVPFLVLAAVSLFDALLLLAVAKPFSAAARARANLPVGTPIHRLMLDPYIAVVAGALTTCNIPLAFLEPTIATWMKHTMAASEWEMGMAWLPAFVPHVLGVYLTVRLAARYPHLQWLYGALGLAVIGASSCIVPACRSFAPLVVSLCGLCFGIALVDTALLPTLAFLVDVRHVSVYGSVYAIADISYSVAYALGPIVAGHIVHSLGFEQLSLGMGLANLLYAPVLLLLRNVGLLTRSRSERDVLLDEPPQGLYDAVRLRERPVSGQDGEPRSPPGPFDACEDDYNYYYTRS
The assay can be described thus: VAChT binding assay, (−)-[3H]vesamicol, human VAChT expressed in PC12 cells.
Experimental: In vitro binding assays of these novel compounds to VAChT were conducted with human vesicular acetylcholine transporter (VAChT) permanently expressed in PC12^A123.7 cells at about 50 pmol/mg of crude extract. […] Duplicate data were averaged and fitted by regression with a rectangular hyperbola to estimate the Ki value of the novel compound. All compounds were independently assayed at least two times.

Assay [4] has as its target T4, VAChT (Tetronarce californica, UniProt P81721).
T4 construct: using highly purified Torpedo synaptic vesicles; from tissue
T4 sequence (P81721 1-515): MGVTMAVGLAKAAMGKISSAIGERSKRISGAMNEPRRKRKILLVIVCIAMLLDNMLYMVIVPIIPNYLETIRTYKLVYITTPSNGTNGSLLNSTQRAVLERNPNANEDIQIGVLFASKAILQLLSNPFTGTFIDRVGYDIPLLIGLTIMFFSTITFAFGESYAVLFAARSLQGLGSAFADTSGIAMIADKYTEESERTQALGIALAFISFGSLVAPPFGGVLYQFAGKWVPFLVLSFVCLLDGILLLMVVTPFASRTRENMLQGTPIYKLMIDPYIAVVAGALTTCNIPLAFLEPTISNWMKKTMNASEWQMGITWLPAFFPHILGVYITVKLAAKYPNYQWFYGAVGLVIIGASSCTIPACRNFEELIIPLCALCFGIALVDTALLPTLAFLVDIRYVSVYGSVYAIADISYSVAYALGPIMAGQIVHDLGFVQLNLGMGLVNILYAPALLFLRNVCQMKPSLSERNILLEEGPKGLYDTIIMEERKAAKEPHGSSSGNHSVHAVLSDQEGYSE
The assay can be described thus: biochemical. It is filed as binding. Conditions: for VAChT/σ selectivity: in words; for σ1/VAChT: selectivity index Ki (σ1)/Ki (VAChT); for σ2/VAChT: selectivity index Ki (σ2)/Ki (VAChT).

Assay [5] has as its target T2, σ2 receptor. The assay is described as follows: σ2 binding of Table 5 compounds. As to conditions: read-out: σ2 Ki (nM) ± SEM; Table 6. The arrangement: species or system guinea pig. The procedure:
Compounds were tested for VAChT binding using highly purified Torpedo synaptic vesicles. The σ1 and σ2 binding affinities were tested in rat brain and in guinea pig membranes, respectively. Structures and Equilibrium binding constants (Ki) are reported in Table 5 and Table 6, respectively. As in previous studies, we define ligand selectivity in terms of a selectivity index which is calculated as Ki (σ1 or σ2)/Ki (VAChT).
Consequently, we also screened the target compounds for sigma binding to identify selective VAChT ligands from this new structural class of agents.

The mark [6] stands for this setting: Table 4, Ki values of VAChT specific compounds, tissue not given, read-out: Sigma-2 σ1.
The mark [7] stands for this setting: Table 4, Ki values of VAChT specific compounds, tissue not given, read-out: Sigma-1 σ1.
[8] abbreviates: Table 4, Ki values of VAChT specific compounds, source not given, read-out: VAChT.
[9] abbreviates: expressed human VAChT, mean ± SEM, read-out: VAChT (Ki).
The mark [10] stands for this setting: homogenates of rat liver, mean ± SEM, read-out: σ2 (Ki).

Values joined by “and” are separate entries in the source; they are usually repeats but may differ in a detail not shown here. Equal entries are not always repeated. Structures can show the parent of a compound that is named as a salt. Where two headings read alike, the source gives them in different places.

T1 sequence (Q60492 whole entry): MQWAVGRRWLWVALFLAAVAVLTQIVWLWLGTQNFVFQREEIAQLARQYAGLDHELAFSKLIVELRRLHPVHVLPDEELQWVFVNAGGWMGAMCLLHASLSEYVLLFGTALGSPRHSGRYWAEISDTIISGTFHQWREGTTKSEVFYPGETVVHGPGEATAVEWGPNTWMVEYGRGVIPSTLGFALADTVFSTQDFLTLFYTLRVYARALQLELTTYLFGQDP

In the case of `O=C(c1ccc(F)cc1)C1CCN(C2CCN(Cc3ccc(F)cc3)CC2O)CC1` (racemic) [Compound 14a, (1′-(4-Fluorobenzyl)-3′-hydroxy-[1,4′-bipiperidin]-4-yl)(4-fluorophenyl)methanone], the Ki in assay [1] (membrane preparations of guinea pig brain, mean ± SEM, at least three experiments, read-out: σ1 (Ki)) was < 0.005 µM and 0.00048 µM.

Take `Nc1cccc2c1CC(N1CCC(C(=O)c3ccc(F)cc3)CC1)C(O)C2` (single isomer, unassigned) [WW-1-88-1]: the Ki in assay [2] (setting [6]) came to 14.7 ± 1.94 µM; in assay [1] (setting [7]) it was 3.69 ± 0.537 µM; in assay [3] (setting [8]) it was 0.366 ± 0.036 µM.

Regarding `Nc1cccc2c1CC(N1CCC(C(=O)c3ccc(F)cc3)CC1)C(O)C2` (single isomer, unassigned) [WW-1-88-2], the Ki in assay [2] (setting [6]) stood at 6.89 ± 0.546 µM; in assay [1] (setting [7]) it was 3.55 ± 0.438 µM; in assay [3] (setting [8]) it was 0.0209 ± 0.00498 µM.

On to `O=C(c1ccc(F)cc1)C1CCN(C2CCN(C(=O)c3ccc(F)cc3)CC2O)CC1` (centres unmarked) [Compound 15a, (3′-Hydroxy-[1,4′-bipiperidine]-1′,4-diyl)bis(4-fluorophenyl)methanone], for which the Ki in assay [3] (setting [9]) is 3.6 ± 0.499 µM.

As to `COc1ccc(C(=O)C2CCN(C3CN(Cc4ccccc4)CCC3O)CC2)cc1` (centres unmarked) [Compound 16g, (1′-Benzyl-4′-hydroxy-[1,3′-bipiperidin]-4-yl)(4-methoxyphenyl)methanone], the figures for the Ki in assay [2] (setting [10]) and in assay [3] (setting [9]) were 8.54 ± 1.9 µM and 0.0355 ± 0.0111 µM, respectively.

As to `Cc1ccc(C(=O)C2CCN(C3Cc4c(N)cccc4CC3O)CC2)cn1` (centres unmarked) [OS-5-70, (1-(8-amino-3-hydroxy-1,2,3,4-tetrahydronaphthalen-2-yl)piperidin-4-yl)(6-methylpyridin-3-yl)methanone oxalate], the Ki in assay [4] stood at 0.048 ± 0.0114 µM; in assay [2] (setting [6]) it was 27.5 ± 6.94 µM; in assay [3] (setting [8]) it was 0.048 ± 0.0114 µM; in assay [5], 27500 ± 6940 nM.

Regarding `COc1cccnc1C(=O)C1CCN(C2Cc3ccccc3CC2O)CC1` (centres unmarked) [TZ-4-1-92, (1-(3-Hydroxy-1,2,3,4-tetrahydronaphthalen-2-yl)piperidin-4-yl)(3-methoxypyridin-2-yl)methanone oxalate], in assay [4], the Ki is 0.121 ± 0.0292 µM, the VAChT/σ selectivity result is given as “poor selectivity”, the σ1/VAChT is 173.3 and the σ2/VAChT came out at 12.9. Further, the Ki in assay [5] is 1560 ± 63 nM.

For `O=C(c1cncc(F)c1)C1CCN(C2Cc3ccccc3CC2O)CC1` (centres unmarked) [TZ-4-1-96, (5-Fluoropyridin-3-yl)(1-(3-hydroxy-1,2,3,4-tetrahydronaphthalen-2-yl)piperidin-4-yl)methanone oxalate], in assay [4], the Ki was 0.0101 ± 0.00154 µM, the VAChT/σ selectivity entry is “moderate or high”, the σ1/VAChT came to 70.2 and the σ2/VAChT stood at 167.3. The Ki in assay [5] stood at 1690 ± 56 nM.

For `Cn1ccc(C(=O)C2CCN(C3Cc4ccccc4CC3O)CC2)c1` (centres unmarked) [TZ-4-1-114, (1-(3-Hydroxy-1,2,3,4-tetrahydronaphthalen-2-yl)piperidin-4-yl)(1-methyl-1H-pyrrol-3-yl)methanone oxalate], the Ki in assay [5] stood at 7710 ± 1060 nM.

As for `O=C(c1cccnc1F)C1CCN(C2Cc3ccccc3CC2O)CC1` (centres unmarked) [TZ-4-1-122, (2-fluoropyridin-3-yl)(1-(3-hydroxy-1,2,3,4-tetrahydronaphthalen-2-yl)piperidin-4-yl)methanone], in assay [4], the Ki was 0.0127 ± 0.00241 µM, the VAChT/σ selectivity entry is recorded as “moderate or high”, the σ1/VAChT is 102.2 and the σ2/VAChT came out at 277.9. Also, the Ki in assay [5] is 3530 ± 331 nM.

With `Cn1c(C(=O)C2CCN(C3Cc4ccccc4CC3O)CC2)cccc1=O` (centres unmarked) [TZ-4-1-148, 6-(1-(3-Hydroxy-1,2,3,4-tetrahydronaphthalen-2-yl)piperidine-4-carbonyl)-1-methylpyridin-2(1H)-one], in assay [4], the Ki was determined as 0.182 ± 0.0648 µM, the VAChT/σ selectivity result was “poor selectivity”, the σ1/VAChT is listed as 11.8 and the σ2/VAChT is on record as 18.3. In addition, the Ki in assay [5] turned out to be 3340 ± 127 nM.

In the case of `Cn1ccc(C(=O)C2CCN(C3Cc4ccccc4CC3O)CC2)cc1=O` (centres unmarked) [TZ-4-1-150, 4-(1-(3-Hydroxy-1,2,3,4-tetrahydronaphthalen-2-yl)piperidine-4-carbonyl)-1-methylpyridin-2(1H)-one oxalate], in assay [4], the Ki worked out at 0.0662 ± 0.0102 µM, the VAChT/σ selectivity result is “moderate or high”, the σ1/VAChT was determined as 50.5 and the σ2/VAChT stood at 32.1. Moreover, the Ki in assay [5] turned out to be 2120 ± 251 nM.

For `O=C(c1ccc(F)nc1)C1CCN(C2Cc3ccccc3CC2O)CC1` (centres unmarked) [TZ-4-1-154, (6-fluoropyridin-3-yl)(1-(3-hydroxy-1,2,3,4-tetrahydronaphthalen-2-yl)piperidin-4-yl)methanone oxalate], in assay [4], the Ki worked out at 0.0261 ± 0.00241 µM, the VAChT/σ selectivity entry is given as “moderate or high”, the σ1/VAChT was 26.2 and the σ2/VAChT is reported as 67.0. In assay [5], the Ki is 1750 ± 93 nM.

In the case of `O=C(c1ncccc1OCCF)C1CCN(C2Cc3ccccc3CC2O)CC1` (centres unmarked) [TZ-4-2-12, (3-(2-fluoroethoxy)pyridin-2-yl)(1-(3-hydroxy-1,2,3,4-tetrahydronaphthalen-2-yl)piperidin-4-yl)methanone oxalate], in assay [4], the Ki is 0.0764 ± 0.00833 µM, the VAChT/σ selectivity result is “poor selectivity”, the σ1/VAChT came out at 262.0 and the σ2/VAChT is listed as 4.0. In addition, the Ki in assay [5] was 303 ± 130 nM.

Turning to `COc1ccc(C(=O)N2CCC(O)C(N3CCC(C(=O)c4ccc(F)cc4)CC3)C2)cc1` (centres unmarked) [WW-1-35], the Ki in assay [2] (setting [6]) was over 10 µM.

As for `O=C(c1ccc(F)cc1)C1CCN(C2CN(C(=O)c3ccccc3)CCC2O)CC1` (centres unmarked) [WW-1-39], the Ki in assay [2] (setting [6]) came to 3.95 ± 0.278 µM.

Turning to `COc1ccc(C(=O)C2CCN(C3CN(C(=O)c4ccccc4)CCC3O)CC2)cc1` (centres unmarked) [WW-1-67], in assay [2] (setting [6]), the Ki is 4.85 ± 0.649 µM.

Turning to `COc1ccc(C(=O)C2CCN(C3CN(C(=O)c4ccc(F)cc4)CCC3O)CC2)cc1` (centres unmarked) [WW-1-107], the Ki in assay [2] (setting [6]) was determined as 2.6 ± 0.363 µM.

`O=C(c1ccc(F)cc1)C1CCN(C2CN(C(=O)c3ccc(F)cc3)CCC2O)CC1` (centres unmarked) [WW-1-123]: the values for the Ki in assay [2] (setting [6]) and in assay [3] (setting [8]) were 1.38 ± 0.135 µM and 8.7 ± 1.62 µM, respectively.

Turning to `COc1ccc(C(=O)C2CCN(C3CN(C(=O)c4cccnc4)CCC3O)CC2)cc1` (centres unmarked) [WW-III-13], the Ki in assay [2] (setting [6]) was 24.3 ± 1.91 µM.

Consider `COc1ccc(C(=O)C2CCN(C3CN(C(=O)c4ccc(C)s4)CCC3O)CC2)cc1` (centres unmarked) [WW-III-17], for which the Ki in assay [2] (setting [6]) is 24.4 ± 3.63 µM.

As to `COc1ccc(C(=O)C2CCN(C3CN(C(=O)c4cccs4)CCC3O)CC2)cc1` (centres unmarked) [WW-III-21], in assay [2] (setting [6]), the Ki is 6.38 ± 1 µM.

As to `Cc1ccsc1C(=O)N1CCC(O)C(N2CCC(C(=O)c3ccc(F)cc3)CC2)C1` (centres unmarked) [WW-III-39], the Ki in assay [2] (setting [6]) was found to be 4.22 ± 0.205 µM.

Take `Cc1ccc(C(=O)N2CCC(O)C(N3CCC(C(=O)c4ccc(F)cc4)CC3)C2)s1` (centres unmarked) [WW-III-41]: the Ki in assay [2] (setting [6]) turned out to be 16.4 ± 1.48 µM.

Turning to `O=C(c1ccc(F)cc1)C1CCN(C2CN(C(=O)c3cccs3)CCC2O)CC1` (centres unmarked) [WW-III-43], the Ki in assay [2] (setting [6]) worked out at 4.05 ± 0.244 µM.

As to `O=C(c1ccc(F)cc1)C1CCN(C2CN(C(=O)c3cccnc3)CCC2O)CC1` (centres unmarked) [WW-III-45], the Ki was determined as 15.5 ± 2.17 µM in assay [2] (setting [6]) and 0.807 ± 0.139 µM in assay [3] (setting [8]).

Regarding “(4′-Hydroxy-1′-(pyridin-4-ylmethyl)-[1,3′-bipiperidin]-4-yl)(4-methoxyphenyl)methanone [Compound 16h]”, in assay [2] (setting [10]), the Ki was 17.1 ± 3.86 µM.

Values taken from US8658131B2, “Compounds comprising 4-benzoylpiperidine as a sigma-1-selective ligand” (Washington University, priority 2010, dated 2014).
